Active and inactive are the calls of the source. The calls are words filed in the database; no cut-off is given here.
How the values were obtained:
[1] = Cytotoxicity against mouse BV-2 cells assessed as reduction in cell viability measured after 24 hrs by MTT assay; assay type: cell-based
BV-2 [2] = test: Anti-neuroinflammatory activity in mouse BV-2 cells assessed as inhibition of LPS-induced NO production measured after 24 hrs by Griess reagent based assay; assay type: functional, cell-based; details: BV-2, 24 h
BV-2 [3] = test: Anti-neuroinflammatory activity against LPS stimulated mouse BV-2 cells assessed as reduction in iNOS protein expression measured after 24 hrs in presence of LPS by western blot analysis; assay type: functional, cell-based; details: dose 1-10 µM
BV-2 [4] = test: Inhibition of TLR4 production in LPS stimulated mouse BV-2 cells at 1 to 10 uM preincubated with LPS for 1 hr followed by incubation with compound for 16 hrs by western blot analysis; assay type: functional, cell-based; details: dose 1-10 µM
BV-2 [5] = test: Anti-neuroinflammatory activity in mouse BV-2 cells assessed as reduction in LPS-stimulated COX-2 mRNA expression at 1 to 10 uM by qRT-PCR analysis; assay type: functional, cell-based; details: dose 1-10 µM
BV-2 [6] = test: Inhibition of ERK phosphorylation in LPS stimulated mouse BV-2 cells at 1 to 10 uM preincubated with LPS for 1 hr followed by incubation with compound for 16 hrs by western blot analysis; assay type: cell-based; details: dose 1-10 µM
BV-2 [7] = test: Anti-neuroinflammatory activity against LPS stimulated mouse BV-2 cells assessed as reduction in COX-2 protein expression at 1 to 10 uM measured after 24 hrs in presence of LPS by western blot analysis; assay type: functional, cell-based; details: dose 1-10 µM
[8] = molecular target: c-Jun N-terminal kinase (Mus musculus) (UniProt Q91Y86+Q9WTU6+Q61831); test: Inhibition of JNK phosphorylation in LPS stimulated mouse BV-2 cells at 1 to 10 uM preincubated with LPS for 1 hr followed by incubation with compound for 16 hrs by western blot analysis; assay type: cell-based; details: dose 1-10 µM
BV-2 [9] = test: Anti-neuroinflammatory activity in mouse BV-2 cells assessed as reduction in LPS-stimulated IL-1 beta production at 1 to 10 uM preincubated for 1 hr followed by LPS treatment and measured after 24 hrs by ELISA; assay type: functional, cell-based; details: dose 1-10 µM, time 25.0 hrs
[10] = molecular target: Transcription factor p65 (Mus musculus) (UniProt Q04207); test: Inhibition of NF-kappaB p65 nuclear translocation in LPS-stimulated mouse BV-2 cells at 10 uM incubated with compound prior to LPS stimulation by DAPI staining based immunofluorescence assay; assay type: cell-based
BV-2 [11] = test: Anti-neuroinflammatory activity in mouse BV-2 cells assessed as reduction in LPS-stimulated TNFalpha production at 1 to 10 uM preincubated for 1 hr followed by LPS treatment and measured after 24 hrs by ELISA; assay type: functional, cell-based; details: dose 1-10 µM, time 25.0 hrs
BV-2 [12] = test: Anti-neuroinflammatory activity in mouse BV-2 cells assessed as reduction in LPS-stimulated IL-6 mRNA expression by qRT-PCR analysis; assay type: functional, cell-based; details: dose 1-10 µM
BV-2 [13] = test: Anti-neuroinflammatory activity in mouse BV-2 cells assessed as reduction in LPS-stimulated TNF-alpha mRNA expression by qRT-PCR analysis; assay type: functional, cell-based; details: dose 1-10 µM
[14] = molecular target: MAP kinase p38 (Mus musculus) (UniProt P47811+O08911+Q9WUI1+Q9Z1B7); test: Inhibition of p38 phosphorylation in LPS stimulated mouse BV-2 cells at 1 to 10 uM preincubated with LPS for 1 hr followed by incubation with compound for 16 hrs by western blot analysis; assay type: cell-based; details: dose 1-10 µM
BV-2 [15] = test: Anti-neuroinflammatory activity in mouse BV-2 cells assessed as reduction in LPS-stimulated IL-1beta mRNA expression by qRT-PCR analysis; assay type: functional, cell-based; details: dose 1-10 µM
BV-2 [16] = test: Anti-neuroinflammatory activity in mouse BV-2 cells assessed as reduction in LPS-stimulated iNOS mRNA expression at 1 to 10 uM by qRT-PCR analysis; assay type: functional, cell-based; details: dose 1-10 µM
BV-2 [17] = test: Anti-neuroinflammatory activity in mouse BV-2 cells assessed as reduction in LPS-stimulated IL-6 production at 1 to 10 uM preincubated for 1 hr followed by LPS treatment and measured after 24 hrs by ELISA; assay type: functional, cell-based; details: dose 1-10 µM, time 25.0 hrs

c-Jun N-terminal kinase (Mus musculus), sequence (Q61831 whole entry, looked up): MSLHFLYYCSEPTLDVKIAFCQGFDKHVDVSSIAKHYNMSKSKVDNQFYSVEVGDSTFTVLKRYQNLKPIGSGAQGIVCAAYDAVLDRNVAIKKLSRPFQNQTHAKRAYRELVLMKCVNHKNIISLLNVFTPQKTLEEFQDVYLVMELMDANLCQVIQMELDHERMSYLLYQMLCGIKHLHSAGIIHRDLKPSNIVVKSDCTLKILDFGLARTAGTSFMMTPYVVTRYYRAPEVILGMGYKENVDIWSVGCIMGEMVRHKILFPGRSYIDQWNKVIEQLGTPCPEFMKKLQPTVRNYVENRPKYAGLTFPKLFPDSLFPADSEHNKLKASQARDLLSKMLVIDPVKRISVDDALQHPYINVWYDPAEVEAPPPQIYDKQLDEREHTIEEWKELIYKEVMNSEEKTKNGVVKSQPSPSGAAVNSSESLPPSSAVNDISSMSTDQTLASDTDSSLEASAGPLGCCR
c-Jun N-terminal kinase (Mus musculus), sequence (Q91Y86 whole entry, looked up): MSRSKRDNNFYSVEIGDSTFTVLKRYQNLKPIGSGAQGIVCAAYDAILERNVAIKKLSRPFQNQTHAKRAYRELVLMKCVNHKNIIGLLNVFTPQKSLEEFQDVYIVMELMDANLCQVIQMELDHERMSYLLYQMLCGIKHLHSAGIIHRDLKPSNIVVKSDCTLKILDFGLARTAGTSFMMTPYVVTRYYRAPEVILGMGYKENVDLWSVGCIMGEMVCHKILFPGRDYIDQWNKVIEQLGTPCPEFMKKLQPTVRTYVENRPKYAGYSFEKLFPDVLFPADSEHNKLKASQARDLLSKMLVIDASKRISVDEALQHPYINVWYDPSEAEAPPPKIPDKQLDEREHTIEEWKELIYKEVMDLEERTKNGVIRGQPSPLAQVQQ
c-Jun N-terminal kinase (Mus musculus), sequence (Q9WTU6 whole entry, looked up): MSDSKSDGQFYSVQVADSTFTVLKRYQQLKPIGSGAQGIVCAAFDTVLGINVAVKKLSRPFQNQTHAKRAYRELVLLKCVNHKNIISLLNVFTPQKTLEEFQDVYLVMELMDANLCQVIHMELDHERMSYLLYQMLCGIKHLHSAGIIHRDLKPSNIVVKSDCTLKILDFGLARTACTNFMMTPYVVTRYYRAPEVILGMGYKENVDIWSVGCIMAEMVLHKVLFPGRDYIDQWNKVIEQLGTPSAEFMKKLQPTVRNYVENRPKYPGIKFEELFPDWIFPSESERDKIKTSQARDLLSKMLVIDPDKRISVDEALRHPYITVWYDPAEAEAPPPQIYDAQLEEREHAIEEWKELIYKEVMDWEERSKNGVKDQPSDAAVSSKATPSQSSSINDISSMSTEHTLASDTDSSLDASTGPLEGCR
Transcription factor p65 (Mus musculus), sequence (Q04207 whole entry): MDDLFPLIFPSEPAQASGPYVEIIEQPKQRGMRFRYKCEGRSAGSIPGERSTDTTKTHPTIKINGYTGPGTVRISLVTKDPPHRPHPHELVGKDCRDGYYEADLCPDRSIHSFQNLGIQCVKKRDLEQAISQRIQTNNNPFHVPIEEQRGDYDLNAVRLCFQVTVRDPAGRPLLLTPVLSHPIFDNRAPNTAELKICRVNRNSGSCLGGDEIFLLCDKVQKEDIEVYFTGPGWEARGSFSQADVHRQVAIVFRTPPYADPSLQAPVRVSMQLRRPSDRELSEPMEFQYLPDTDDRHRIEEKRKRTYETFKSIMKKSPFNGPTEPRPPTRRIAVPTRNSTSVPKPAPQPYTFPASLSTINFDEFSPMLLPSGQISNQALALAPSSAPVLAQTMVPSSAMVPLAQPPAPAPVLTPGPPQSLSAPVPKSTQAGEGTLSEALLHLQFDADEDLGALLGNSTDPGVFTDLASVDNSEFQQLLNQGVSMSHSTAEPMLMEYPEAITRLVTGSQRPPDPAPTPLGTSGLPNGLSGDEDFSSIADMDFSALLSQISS

| Compound | IC50 (BV-2 [2]) | CC50 at 24 h [1] | further results |
| --- | --- | --- | --- |
| Cc1c2c(cc(C(C)C)cc1=O)[C@@H](C)CC2 | > 30 µM | 76 µM | – |
| Cc1c2c(cc(C(C)C)cc1=O)[C@](C)(O)C[C@@H]2O | > 30 µM | 49 µM | – |
| Cc1c2c(cc(C(C)C)cc1=O)[C@@H](C)C[C@@H]2O | > 30 µM | 35 µM | – |
| Cc1c2c(cc(C(C)(C)O)cc1=O)[C@@H](C)C[C@@H]2O | > 30 µM | 39 µM | – |
| CC(C)c1cc2c(c(CO)c(=O)c1)CC[C@@]2(C)O | > 30 µM | 61 µM | – |

Second part, led by results:

| IC50 (BV-2 [2]) | Compound | CC50 at 24 h [1] | further results |
| --- | --- | --- | --- |
| 26 µM | Cc1c2c(cc(C(C)C)cc1=O)[C@@H](C)C[C@H]2O | 78 µM | – |
| > 30 µM | Cc1c2c(cc(C(C)C)cc1=O)[C@@](C)(O)CC2 | 79 µM | – |
| 10 µM | CNC(=N)NCCC[C@H](N)C(=O)O [TILARGININE] | > 200 µM | – |
| 20 µM | CC(C)c1cc2c(c(CO)c(=O)c1)[C@@H](O)C[C@@H]2C | 49 µM | – |
| 9 µM | CC(C)c1cc2c(c(CO)c(=O)c1)[C@H](O)C[C@@H]2C | 74 µM | Activity (BV-2 [3]): Dose-Dependent Effect; inhibition (BV-2 [4]): inactive; Activity (BV-2 [5]): Active; inhibition (BV-2 [6]): inactive; Activity (BV-2 [7]): Active; inhibition [8]: inactive; Activity (BV-2 [9]): Active; inhibition [10]: Active; Activity (BV-2 [11]): Active; Activity (BV-2 [12]): Active; Activity (BV-2 [13]): Active; inhibition [14]: inactive; Activity (BV-2 [15]): Active; Activity (BV-2 [16]): Active; Activity (BV-2 [17]): Active |
